Values after ≈ are worked out from the molar mass of the structure shown. Values belong to the molecule of their own block, whether it stands above or below them.
Columns and labels:
human GPR52 = target: T1, human GPR52 (Homo sapiens, UniProt Q9Y2T5); assay: GPR52 Agonist Functional cAMP Assay; type: cell-based; settings: HEKf cells infected with human GPR52 BacMam, cAMP HTRF, 30 min 37° C.; read-out: pEC50 average (converted)
T1 construct: expressed in transfected cells; host or cells: HEKf suspension cells, BacMam (modified baculovirus) transduction
T1 sequence (Q9Y2T5 whole entry): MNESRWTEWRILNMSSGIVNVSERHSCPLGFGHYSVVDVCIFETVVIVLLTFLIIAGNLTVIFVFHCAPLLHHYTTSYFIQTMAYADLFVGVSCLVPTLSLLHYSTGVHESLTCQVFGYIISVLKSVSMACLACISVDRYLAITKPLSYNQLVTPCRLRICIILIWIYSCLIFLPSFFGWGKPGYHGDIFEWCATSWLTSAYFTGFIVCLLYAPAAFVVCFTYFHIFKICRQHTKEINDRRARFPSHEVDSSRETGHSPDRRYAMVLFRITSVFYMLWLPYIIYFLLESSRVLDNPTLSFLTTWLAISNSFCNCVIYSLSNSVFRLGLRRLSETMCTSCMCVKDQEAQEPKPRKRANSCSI
Method: HEKf suspension cells were infected for 24 h with 0.1% v/v human GPR52 expressing BacMam virus, a modified baculovirus designed for mammalian gene expression. Following BacMam infection, cells were pelleted by centrifugation (335 g, 5 min), resuspended in cell freezing medium (Sigma) and frozen at −150° C. until required. On experiment day, 25 nL GPR52 compound dilutions, prepared in DMSO, were stamped onto proxiplates (PerkinElmer) by a LabCyte ECHO acoustic dispenser. Frozen cells were thawed and resuspended in assay stimulation buffer (Cisbio) containing 0.5 mM 3-iso-butyl-1-methylxanthine (IBMX, Sigma) to achieve a density of 2000 cells per well. 10 μl cells were added to assay plates using a Multidrop Combi Reagent Dispenser (ThermoFisher) before centrifugation (1 min). Cells were incubated with compounds at 37° C. for 30 min prior to addition of cAMP detection reagents (HiRange cAMP kit, Cisbio) which were prepared according to the manufacturer's instructions. Plates were shaken for 1 h at room temperature before reading on a PHERAstar FS plate reader (BMG Labtech) using standard HTRF settings. HTRF ratios were obtained by dividing the acceptor emissions (665 nm) by the donor emissions (620 nm) and multiplying by 10,000. […] Further pharmacokinetic data for Intermediate 6 is provided in Applicant's earlier application PCT/GB2021/050638 (see Example 39).

[1] = Plasma concentration-time data after PO dose of Example 2 in Beagle dogs; type: in vivo; settings: dog, PO Example 2, all time points
Method: (§1) Systemic exposure of Example 2 and Intermediate 6 (Example 39 of Applicant's earlier application PCT/GB2021/050638 (WO2021/181122A1)) were assessed in male Sprague-Dawley rats and male Beagle dogs following oral (per os, PO) administration of Example 2. Plasma concentration-time data (mean values±standard deviation) are detailed in Tables 4 and 5.
(§2) Three male Sprague-Dawley rats (weighing 269-270 g) and three male Beagle dogs (weighing 7-10 kg), were administered a single dose of Example 2 via PO route, using the dose and vehicle specified in Table #. Following dosing, blood samples were taken at several time points (pre-dose, 5 min, 15 min, 30 min, 1 h, 2 h, 4 h, 8 h, 12 h and 24 h in both species, plus additional samples at 32 h and 48 h in dog) via serial bleeding of jugular vein (rat) or cephalic vein (dog), and centrifuged to separate plasma for quantitative bioanalysis of Example 2 and Intermediate 6 by LC-MS/MS.

[2] = Plasma concentration-time data after PO dose of Example 2 in Sprague-Dawley rats; type: in vivo; settings: rat, PO Example 2, all time points
Method: as §1, §2

[3] = Thermodynamic solubility in biorelevant media; type: physicochemical; settings: thermodynamic from solid
Method: This experiment was designed to evaluate the thermodynamic solubility of Example 2 in various biorelevant media (Blank Fasted State Simulated Intestinal Fluid (FaSSIF) pH 6.5, FaSSIF pH 6.5 and simulated gastric fluid (SGF) without enzyme pH 1.2).
A 10 mM stock solution of Example 2 in dimethyl sulfoxide (DMSO) was prepared. From the 10 mM stock solution, a 1 mM intermediate solution of Example 2 in DMSO was prepared. A working solution of 1 μM of Example 2 was prepared by diluting the intermediate solution in mobile phase solution (methanol: 2 mM ammonium acetate containing suitable internal standard—carbamazepine). The working solution was serially diluted in mobile phase solution up to 8 linearity points to prepare standard solutions for plotting a calibration curve. The area for each standard solution was analyzed using LCMS/MS. The normalized area values were plotted vs. concentration to achieve a calibration equation.
Example 2 (1 mg) was added to 1 mL of each desired biorelevant media (SGF without enzyme pH 1.2, Blank FaSSIF pH 6.5 and FaSSIF pH 6.5) to achieve a theoretical concentration equivalent to 1 mg/mL.
The resulting solutions were then kept on RotoSpin (shaker) at 50 rpm for 4 hours at room temperature (25° C.). After the incubation period, the content was filtered through a 0.45 μm PVDF (hydrophilic) syringe filter and the filtrate was taken for quantification by LCMS/MS. The filtrate was diluted in mobile phase and subsequently, the area under the curve (AUC) was ascertained for diluted sample using LCMS/MS. From the AUC of test sample the corresponding concentration was calculated using 6 to 8 point linearity/calibration curve.

[4] = tested on: caffeine-induced hyperlocomotor response; assay: Caffeine-induced locomotor activity in rat; type: in vivo, Sprague-Dawley rats; settings: rat, 0.1, 0.3, 1 and 3 mg/kg PO, 60 min before caffeine 15 mg/kg s.c., 2 h activity
From the text: Caffeine, a non-selective adenosine receptor antagonist, is a psychostimulant which increases rodent locomotor activity principally via blockade of A2A receptors (Br. J. Pharmacol., 2000, 129, 1465). These receptors are densely expressed on the terminals of GABAergic striatopallidal neurons in the indirect pathway of the basal ganglia, in which dopamine D2 receptors are co-expressed (J. Comp. Neurol., 1998, 401, 163; J. Comp. Neurol., 2001, 431, 331). Tonic activation of A2A receptors decreases the affinity of D2 receptors to dopamine and antagonism of A2A receptors facilitates dopaminergic signalling (Curr. Pharm. Des., 2008, 14, 1468). […] Male Sprague-Dawley rats (200-250 g) were housed in groups with a 12 h light/dark cycle (lights on at 07.00), at an ambient temperature of 21±2° C. and with standard pelleted diet and water ad libitum. Testing was carried out in the light phase. On the day of the experiment, animals were habituated to the locomotor cages for a 60-minute period. Subsequently, they were dosed with vehicle or Intermediate 6 (Example 39 of WO2021/181122A1) (0.1, 0.3, 1 and 3 mg/kg) by the oral route and returned to the appropriate locomotor cage. […] Locomotor activity was assessed for a 2 h period after caffeine treatment. […] SEMs were calculated from the residuals of the statistical model. […]

Rat IV pharmacokinetics = type: in vivo, Sprague-Dawley rats; settings: male, Sprague-Dawley, plasma, IV 1 mg/kg, n = 3
Method: The pharmacokinetic profiles of Intermediate 6 (Example 39 of WO2021/181122A1) were assessed in male Sprague-Dawley rats via intravenous (IV) delivery. Pharmacokinetic data (mean values±standard deviation) for Intermediate 6 (Example 39 of WO2021/181122A1) are detailed in Table 7.
For pharmacokinetic analysis, groups of three male Sprague-Dawley rats, ranging in weight between 200 and 230 g, were administered a single dose of Intermediate 6 (Example 39 of WO2021/181122A1) via IV, using the dose, dose volume and vehicle specified in Table 7. Following dosing, blood samples were taken at several time points (pre-dose, 2 min, 5 min, 15 min, 30 min, 1 h, 3 h, 6 h, 12 h and 24 h for IV) via serial tail vein bleeds, and centrifuged to separate plasma for analysis by LC-MS/MS. WinNonlin v8.2 statistics software (Pharsight Corporation, California, USA) was used to generate pharmacokinetic parameters using non-compartmental analysis.

[5] = Rat IV brain penetration (Kp,uu); type: in vivo, Sprague-Dawley rats; settings: male, Sprague-Dawley, brain and plasma, IV 1 mg/kg, n = 3, unbound brain-to-plasma ratio
Method: Plasma and brain exposure were evaluated to assess the brain penetration of Intermediate 6 (Example 39 of WO2021/181122A1), following IV administration. Unbound brain-to-plasma ratio (Kp,uu) was calculated, as detailed in Table 7, following experimental determination of binding in rat plasma and brain homogenate.
For brain penetration assessment, male Sprague-Dawley rats (n=3) were administered a single 1 mg/kg dose (formulated in 10% DMAC+10% Solutol HS15+80% saline) via the IV route. After 10 min post-dose, animals were sacrificed and brains extracted, homogenised with 2 volumes (w/v) of 50 mM sodium phosphate buffer (pH 7.4), and analysed by LC-MS/MS. Blood samples were removed at the same time point via tail vein bleed, centrifuged and the plasma analysed by LC-MS/MS.
To permit calculation of unbound brain-to-plasma ratio (Kp,uu), test compound binding in rat plasma and brain homogenate was performed, using Rapid Equilibrium Dialysis (RED). […]
After incubation, the contents of each plasma/brain and buffer compartment were removed and mixed with equal volumes of control dialysed buffer or plasma/brain to maintain matrix similarity for analysis. […] Fraction unbound (Fu) in plasma and brain was calculated using the following formula, then used to correct total plasma and brain concentrations to derive the Kp,uu:

SMILES: Cc1nn(-c2cc(Cc3cc(F)cc(C(F)(F)F)c3)ccn2)c(CO)c1C(=O)NCCO [Intermediate 7, 1-(4-(3-fluoro-5-(trifluoromethyl)benzyl)pyridin-2-yl)-N-(2-hydroxyethyl)-5-(hydroxymethyl)-3-methyl-1H-pyrazole-4-carboxamide]
EC50 (human GPR52): 2.51 nM

SMILES: Cc1nn(-c2cc(Cc3cc(F)cc(C(F)(F)F)c3)ccn2)c(COP(=O)(O)O)c1C(N)=O [Example 2]
Plasma concentrations of Example 2 [1]: < 1 ng/mL
Plasma concentrations of Example 2 [2]: < 1 ng/mL
solubility at 4 h ([3]; SGF without enzyme, simulated gastric fluid, SGF, pH 1.2, 25° C.): 13.1 µM (≈ 6.38 µg/mL)
solubility at 4 h ([3]; fassgf or other biorelevant, Blank FaSSIF, pH 6.5, 25° C.): 1890 µM (≈ 922 µg/mL)
solubility at 4 h ([3]; FaSSIF, pH 6.5, 25° C.): 1830 µM (≈ 894 µg/mL)

SMILES: CNC(=O)c1c(C)nn(-c2cc(Cc3cc(F)cc(C(F)(F)F)c3)ccn2)c1CO [Intermediate 12, 1-(4-(3-fluoro-5-(trifluoromethyl)benzyl)pyridin-2-yl)-5-(hydroxymethyl)-N,3-dimethyl-1H-pyrazole-4-carboxamide]
EC50 (human GPR52): 10 nM

SMILES: Cc1nn(-c2ccnc(Cc3cc(F)cc(C(F)(F)F)c3)c2)c(CO)c1C(=O)NCCO [Intermediate 11, 1-(2-(3-fluoro-5-(trifluoromethyl)benzyl)pyridin-4-yl)-N-(2-hydroxyethyl)-5-(hydroxymethyl)-3-methyl-1H-pyrazole-4-carboxamide]
EC50 (human GPR52): 31.6 nM

SMILES: Cc1nn(-c2cc(Cc3cc(F)cc(C(F)F)c3)ccn2)c(CO)c1C(N)=O [Intermediate 16, 1-(4-(3-(difluoromethyl)-5-fluorobenzyl)pyridin-2-yl)-5-(hydroxymethyl)-3-methyl-1H-pyrazole-4-carboxamide]
EC50 (human GPR52): 3.98 nM

Now from value to molecule, other results behind:

EC50 (human GPR52): 6.31 nM
clearance (Rat IV pharmacokinetics): 8.8 ± 1.1 mL/min/kg
Kp uu at 10 min [5]: 0.42 ± 0.08
SMILES: Cc1nn(-c2cc(Cc3cc(F)cc(C(F)(F)F)c3)ccn2)c(CO)c1C(N)=O [Intermediate 6, 1-(4-(3-fluoro-5-(trifluoromethyl)benzyl)pyridin-2-yl)-5-(hydroxymethyl)-3-methyl-1H-pyrazole-4-carboxamide]
effect on caffeine-induced hyperlocomotor response [4]: dose-dependent reduction of the caffeine-induced hyperlocomotor response, reaching statistical significance at 1 and 3 mg/kg

EC50 (human GPR52): 31.6 nM
SMILES: Cc1nn(-c2ccnc(Cc3cc(F)cc(C(F)(F)F)c3)c2)c(CO)c1C(N)=O [Intermediate 10, 1-(2-(3-fluoro-5-(trifluoromethyl)benzyl)pyridin-4-yl)-5-(hydroxymethyl)-3-methyl-1H-pyrazole-4-carboxamide]

From patent US20240376070A1, “GPR52 MODULATOR COMPOUNDS” (NXERA PHARMA UK LIMITED, priority 2021, published 2024)
